Test results published in patent publication US10093611B2, “Benzocycloalkenes as antifungal agents” (Bayer Intellectual Property GmbH, priority 2010, dated 2018).

The compounds below were run on Blumeria graminis fsp. hordei (assay: In vivo preventive test on Blumeria graminis (barley)). Details: 500 ppm of active ingredient, evaluated 7 days after inoculation.
Experimental: EXAMPLE B: IN VIVO PREVENTIVE TEST ON BLUMERIA GRAMINIS (BARLEY) Solvent: 49 parts by weight of N,N-dimethylacetamide Emulsifier: 1 part by weight of alkylaryl polyglycol ether To produce a suitable preparation of active compound, 1 part by weight of active compound or active compound combination is mixed with the stated amounts of solvent and emulsifier, and the concentrate is diluted with water to the desired concentration. To test for preventive activity, young plants are sprayed with the preparation of active compound or active compound combination at the stated rate of application. After the spray coating has been dried, the plants are dusted with spores of Blumeria graminis fsp. hordei. The plants are placed in the greenhouse at a temperature of approximately 18° C. and a relative atmospheric humidity of approximately 80% to promote the development of mildew pustules. The test is evaluated 7 days after the inoculation. 0% means an efficacy which corresponds to that of the untreated control, while an efficacy of 100% means that no disease is observed. Under these conditions, total protection is observed at a dose of 500 ppm of active ingredient with the following compounds from table B: […]

| SMILES | Efficacy [%] |
| --- | --- |
| CC(C1Cc2ccccc2C1)N(C(=O)c1c(C(F)F)nn(C)c1F)C1CC1 (centres unmarked) [Example 14, N-cyclopropyl-3-(difluoromethyl)-N-[1-(indan-2-yl)ethyl]-5-fluoro-1-methyl-1H-pyrazole-4-carboxamide] | 100 |
| CC(C1CCc2ccccc2C1)N(C(=O)c1c(C(F)F)nn(C)c1F)C1CC1 (centres unmarked) [Example 16] | 100 |
| CCc1nn(C)c(F)c1C(=O)N(C1CC1)C(C)C1Cc2ccccc2C1 (centres unmarked) [Example 12] | 100 |
| Cc1nn(C)c(F)c1C(=O)N(C1CC1)C(C)C1Cc2ccccc2C1 (centres unmarked) [Example 11] | 100 |
| CC(C1Cc2ccccc2C1)N(C(=O)c1cn(C)nc1C(F)F)C1CC1 (centres unmarked) [Example 13] | 100 |
